# Source: patent US11505533B2, “Metabolically stable N-acylaminooxadiazoles useful as antibacterial agents” (MICROBIOTIX, INC., priority 2017, dated 2022)
# Assays:
# Assay type in all cases: binding
# Sodium Channel, Site 2 = details: 10 μM; rat
# Prostanoid EP4 = Prostanoid EP4 (Homo sapiens, UniProt P35408); details: for % Inhibition: 10 μM
# Muscarinic M3 = Muscarinic M3 (Homo sapiens, UniProt P20309); details: for % Inhibition: 10 μM
# Adrenergic α1A = target: T1, Adrenergic α1A (Rattus norvegicus, UniProt P43140); details: for % Inhibition: 10 μM
# T1 sequence (P43140 1-466): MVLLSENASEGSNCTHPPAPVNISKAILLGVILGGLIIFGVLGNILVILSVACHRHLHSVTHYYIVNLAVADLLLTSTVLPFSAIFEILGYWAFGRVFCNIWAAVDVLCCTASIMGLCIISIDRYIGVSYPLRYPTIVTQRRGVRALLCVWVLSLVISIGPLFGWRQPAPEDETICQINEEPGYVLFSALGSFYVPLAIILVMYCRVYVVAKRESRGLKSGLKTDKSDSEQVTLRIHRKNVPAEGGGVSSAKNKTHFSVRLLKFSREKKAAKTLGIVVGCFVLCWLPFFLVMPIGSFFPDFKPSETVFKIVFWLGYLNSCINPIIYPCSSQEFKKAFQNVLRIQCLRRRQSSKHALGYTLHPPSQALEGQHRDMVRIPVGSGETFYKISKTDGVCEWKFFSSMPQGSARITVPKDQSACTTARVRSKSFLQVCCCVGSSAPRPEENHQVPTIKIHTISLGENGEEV
# Adrenergic α2A = target: T2, Adrenergic α2A (Homo sapiens, UniProt P08913); details: for % Inhibition: 10 μM
# T2 sequence (P08913 1-465): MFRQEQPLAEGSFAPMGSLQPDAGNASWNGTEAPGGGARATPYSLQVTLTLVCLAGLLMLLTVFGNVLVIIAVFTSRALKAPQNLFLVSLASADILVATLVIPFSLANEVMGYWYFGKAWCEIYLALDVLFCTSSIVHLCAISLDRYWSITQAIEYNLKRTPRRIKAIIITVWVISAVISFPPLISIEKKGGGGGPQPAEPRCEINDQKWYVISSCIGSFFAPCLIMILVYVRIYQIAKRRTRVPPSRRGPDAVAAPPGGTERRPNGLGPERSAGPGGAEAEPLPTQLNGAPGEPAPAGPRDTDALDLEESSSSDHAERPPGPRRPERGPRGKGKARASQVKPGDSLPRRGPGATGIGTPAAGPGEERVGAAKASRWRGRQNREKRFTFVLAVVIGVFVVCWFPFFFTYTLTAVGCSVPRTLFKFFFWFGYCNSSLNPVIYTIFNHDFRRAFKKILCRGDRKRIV
# Rolipram = details: 10 μM; rat
# Dopamine D2s = Dopamine D2s (Homo sapiens, UniProt P14416); details: for % Inhibition: 10 μM
# Chain of Dopamine D2s (P14416 1-414 isoform P14416-2): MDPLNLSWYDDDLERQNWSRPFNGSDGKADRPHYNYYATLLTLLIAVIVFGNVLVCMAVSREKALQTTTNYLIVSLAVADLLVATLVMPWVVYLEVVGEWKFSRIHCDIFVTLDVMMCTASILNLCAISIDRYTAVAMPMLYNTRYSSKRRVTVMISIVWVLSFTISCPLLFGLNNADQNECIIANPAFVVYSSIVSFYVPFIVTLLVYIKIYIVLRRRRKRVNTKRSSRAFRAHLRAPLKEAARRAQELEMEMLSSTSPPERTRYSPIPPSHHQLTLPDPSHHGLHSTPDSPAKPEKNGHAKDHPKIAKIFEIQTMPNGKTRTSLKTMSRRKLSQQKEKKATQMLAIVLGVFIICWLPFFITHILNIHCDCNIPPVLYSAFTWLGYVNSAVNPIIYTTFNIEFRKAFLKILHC
# [1] = target: Nicotinic Acetylcholine a1, Bungarotoxin (Homo sapiens, UniProt P02708+P07510+Q07001); details: for % Inhibition: 10 μM, human
# Chain of Nicotinic Acetylcholine a1, Bungarotoxin (P07510 23-517): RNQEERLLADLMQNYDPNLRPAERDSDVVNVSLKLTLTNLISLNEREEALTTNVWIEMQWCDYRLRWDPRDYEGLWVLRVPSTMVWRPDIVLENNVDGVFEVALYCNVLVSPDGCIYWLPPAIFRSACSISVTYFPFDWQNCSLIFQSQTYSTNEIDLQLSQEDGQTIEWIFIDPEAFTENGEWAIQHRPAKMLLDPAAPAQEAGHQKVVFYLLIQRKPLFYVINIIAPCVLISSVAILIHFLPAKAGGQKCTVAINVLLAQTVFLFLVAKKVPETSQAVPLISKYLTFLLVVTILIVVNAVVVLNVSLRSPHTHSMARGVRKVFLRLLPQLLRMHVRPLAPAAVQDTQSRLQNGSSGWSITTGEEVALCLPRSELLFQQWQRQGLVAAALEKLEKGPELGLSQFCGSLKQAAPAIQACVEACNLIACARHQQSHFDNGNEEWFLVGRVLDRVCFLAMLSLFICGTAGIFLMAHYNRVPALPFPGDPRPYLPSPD
# Chain of Nicotinic Acetylcholine a1, Bungarotoxin (P02708 21-457): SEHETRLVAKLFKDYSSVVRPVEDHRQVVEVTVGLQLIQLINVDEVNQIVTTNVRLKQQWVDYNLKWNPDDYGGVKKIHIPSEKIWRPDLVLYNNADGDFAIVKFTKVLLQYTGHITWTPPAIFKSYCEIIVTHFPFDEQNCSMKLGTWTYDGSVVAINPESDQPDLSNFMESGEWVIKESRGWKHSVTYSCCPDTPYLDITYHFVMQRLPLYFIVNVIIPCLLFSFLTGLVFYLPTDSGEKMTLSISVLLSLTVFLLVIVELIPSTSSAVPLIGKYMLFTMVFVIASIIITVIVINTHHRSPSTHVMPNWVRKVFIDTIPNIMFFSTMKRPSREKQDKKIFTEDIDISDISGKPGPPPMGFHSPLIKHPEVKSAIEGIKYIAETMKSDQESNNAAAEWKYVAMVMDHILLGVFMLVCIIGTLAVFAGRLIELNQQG
# Chain of Nicotinic Acetylcholine a1, Bungarotoxin (Q07001 22-517): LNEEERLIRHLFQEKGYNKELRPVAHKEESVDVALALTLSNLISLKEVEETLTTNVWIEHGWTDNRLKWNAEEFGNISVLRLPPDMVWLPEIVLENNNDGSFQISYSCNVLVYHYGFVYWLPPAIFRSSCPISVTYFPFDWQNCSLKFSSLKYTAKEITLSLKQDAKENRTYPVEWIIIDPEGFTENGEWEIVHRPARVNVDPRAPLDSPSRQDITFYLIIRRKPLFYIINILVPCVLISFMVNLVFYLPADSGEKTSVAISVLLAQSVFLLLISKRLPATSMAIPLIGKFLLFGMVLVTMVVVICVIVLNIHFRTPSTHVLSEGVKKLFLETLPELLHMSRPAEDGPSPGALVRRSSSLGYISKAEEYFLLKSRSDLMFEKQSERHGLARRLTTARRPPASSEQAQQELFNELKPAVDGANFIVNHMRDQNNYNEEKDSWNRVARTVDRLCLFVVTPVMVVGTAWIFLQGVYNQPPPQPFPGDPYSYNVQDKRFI
# Chain of Nicotinic Acetylcholine a1, Bungarotoxin (P11230 24-501, further chain): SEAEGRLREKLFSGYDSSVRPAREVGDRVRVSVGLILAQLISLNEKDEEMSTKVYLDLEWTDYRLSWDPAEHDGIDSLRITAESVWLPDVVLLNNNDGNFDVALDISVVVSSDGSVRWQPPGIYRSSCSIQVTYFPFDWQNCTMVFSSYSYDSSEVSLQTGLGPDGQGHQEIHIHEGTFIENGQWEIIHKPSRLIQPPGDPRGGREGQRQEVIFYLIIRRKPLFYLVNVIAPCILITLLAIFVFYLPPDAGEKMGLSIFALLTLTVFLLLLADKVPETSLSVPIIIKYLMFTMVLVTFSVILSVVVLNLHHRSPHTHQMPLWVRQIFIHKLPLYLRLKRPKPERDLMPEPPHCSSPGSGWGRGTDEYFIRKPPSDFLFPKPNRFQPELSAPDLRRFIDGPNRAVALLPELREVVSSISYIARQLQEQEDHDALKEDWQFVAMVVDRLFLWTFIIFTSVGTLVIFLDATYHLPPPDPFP
# Adrenergic α1B = target: T3, Adrenergic α1B (Rattus norvegicus, UniProt P15823); details: for % Inhibition: 10 μM
# T3 sequence (P15823 1-515): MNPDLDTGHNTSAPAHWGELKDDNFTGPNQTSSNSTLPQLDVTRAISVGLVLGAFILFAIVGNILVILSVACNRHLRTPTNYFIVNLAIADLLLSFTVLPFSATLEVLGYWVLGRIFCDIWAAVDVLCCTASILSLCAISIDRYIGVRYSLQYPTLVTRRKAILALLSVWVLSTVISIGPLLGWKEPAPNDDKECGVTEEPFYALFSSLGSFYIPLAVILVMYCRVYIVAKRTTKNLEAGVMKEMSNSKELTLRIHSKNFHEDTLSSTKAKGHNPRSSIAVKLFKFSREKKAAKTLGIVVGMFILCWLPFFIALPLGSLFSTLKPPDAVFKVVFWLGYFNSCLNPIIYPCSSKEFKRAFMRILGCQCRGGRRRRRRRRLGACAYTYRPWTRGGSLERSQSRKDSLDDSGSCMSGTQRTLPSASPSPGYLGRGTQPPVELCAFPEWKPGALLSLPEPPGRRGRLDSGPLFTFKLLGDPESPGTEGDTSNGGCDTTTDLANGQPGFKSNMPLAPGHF
# [2] = target: Seritonin (5-Hydroxytryptamine) 5-HT2B (Homo sapiens, UniProt P41595); details: for % Inhibition: 10 μM
# Chain of Seritonin (5-Hydroxytryptamine) 5-HT2B (P41595 whole entry): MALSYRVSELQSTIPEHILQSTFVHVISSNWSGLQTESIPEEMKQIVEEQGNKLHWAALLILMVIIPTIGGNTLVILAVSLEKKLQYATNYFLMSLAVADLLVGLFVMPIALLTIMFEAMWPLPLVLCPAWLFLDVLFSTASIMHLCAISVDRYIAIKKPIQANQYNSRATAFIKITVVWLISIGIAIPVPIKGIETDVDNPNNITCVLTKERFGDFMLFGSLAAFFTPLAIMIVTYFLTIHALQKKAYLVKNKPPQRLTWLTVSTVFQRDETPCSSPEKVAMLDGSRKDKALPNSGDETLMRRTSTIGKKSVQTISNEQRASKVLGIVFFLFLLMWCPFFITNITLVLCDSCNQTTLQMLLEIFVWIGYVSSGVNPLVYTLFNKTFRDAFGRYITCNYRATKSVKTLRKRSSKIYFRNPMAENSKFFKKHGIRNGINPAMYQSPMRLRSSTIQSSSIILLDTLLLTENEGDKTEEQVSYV
# Nicotinic Acetylcholine = details: 10 μM; human
# Sigma σ1 = Sigma σ1 (Homo sapiens, UniProt Q99720); details: for % Inhibition: 10 μM
# Adenosine A2A = Adenosine A2A (Homo sapiens, UniProt P29274); details: for % Inhibition: 10 μM
# Chain of Adenosine A2A (P29274 whole entry): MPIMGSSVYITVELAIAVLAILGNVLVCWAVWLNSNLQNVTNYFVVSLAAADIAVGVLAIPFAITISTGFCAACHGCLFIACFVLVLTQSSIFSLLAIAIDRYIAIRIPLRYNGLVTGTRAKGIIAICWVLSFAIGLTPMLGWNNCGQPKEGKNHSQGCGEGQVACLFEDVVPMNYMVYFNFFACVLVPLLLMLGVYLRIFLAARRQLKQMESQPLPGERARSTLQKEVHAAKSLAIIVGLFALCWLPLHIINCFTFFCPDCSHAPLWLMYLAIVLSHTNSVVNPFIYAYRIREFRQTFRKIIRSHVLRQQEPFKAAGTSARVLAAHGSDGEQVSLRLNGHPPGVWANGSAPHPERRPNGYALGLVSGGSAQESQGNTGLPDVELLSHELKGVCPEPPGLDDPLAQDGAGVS
# Adenosine A1 = target: T4, Adenosine A1 (Homo sapiens, UniProt P30542); details: for % Inhibition: 10 μM
# T4 sequence (P30542 1-326): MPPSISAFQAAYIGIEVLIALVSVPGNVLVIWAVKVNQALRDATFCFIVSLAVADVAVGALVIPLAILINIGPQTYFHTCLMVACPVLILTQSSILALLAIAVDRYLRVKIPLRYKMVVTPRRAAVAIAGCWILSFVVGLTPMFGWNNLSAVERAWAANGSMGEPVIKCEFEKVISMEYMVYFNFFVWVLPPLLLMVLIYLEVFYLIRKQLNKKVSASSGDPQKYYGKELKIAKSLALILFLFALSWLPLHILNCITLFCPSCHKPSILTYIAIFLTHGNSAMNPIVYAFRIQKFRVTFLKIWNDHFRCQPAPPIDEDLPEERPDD
# [3] = tested on: Glutamate, NMDA, Phencyclidine; details: 10 μM; rat
# Histamine, H1 = Histamine, H1 (Homo sapiens, UniProt P35367); details: for % Inhibition: 10 μM
# Chain of Histamine, H1 (P35367 whole entry): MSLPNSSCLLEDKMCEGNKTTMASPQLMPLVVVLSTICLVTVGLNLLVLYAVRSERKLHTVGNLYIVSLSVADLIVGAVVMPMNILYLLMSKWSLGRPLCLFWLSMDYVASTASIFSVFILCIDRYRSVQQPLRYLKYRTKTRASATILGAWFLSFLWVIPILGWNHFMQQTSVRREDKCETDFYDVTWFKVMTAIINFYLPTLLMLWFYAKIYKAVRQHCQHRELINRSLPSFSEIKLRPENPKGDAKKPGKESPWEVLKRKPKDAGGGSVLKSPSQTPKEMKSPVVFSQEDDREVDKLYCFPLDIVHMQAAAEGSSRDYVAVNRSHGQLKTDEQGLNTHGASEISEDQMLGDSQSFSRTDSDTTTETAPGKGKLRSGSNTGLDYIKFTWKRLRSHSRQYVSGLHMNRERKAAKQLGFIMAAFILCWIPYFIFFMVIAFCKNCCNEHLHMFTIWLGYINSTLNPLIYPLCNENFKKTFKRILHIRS
# [4] = tested on: GABAA, Flunitrazepam, Central; details: 10 μM; rat
# Chain of Muscarinic M3 (P20309 whole entry): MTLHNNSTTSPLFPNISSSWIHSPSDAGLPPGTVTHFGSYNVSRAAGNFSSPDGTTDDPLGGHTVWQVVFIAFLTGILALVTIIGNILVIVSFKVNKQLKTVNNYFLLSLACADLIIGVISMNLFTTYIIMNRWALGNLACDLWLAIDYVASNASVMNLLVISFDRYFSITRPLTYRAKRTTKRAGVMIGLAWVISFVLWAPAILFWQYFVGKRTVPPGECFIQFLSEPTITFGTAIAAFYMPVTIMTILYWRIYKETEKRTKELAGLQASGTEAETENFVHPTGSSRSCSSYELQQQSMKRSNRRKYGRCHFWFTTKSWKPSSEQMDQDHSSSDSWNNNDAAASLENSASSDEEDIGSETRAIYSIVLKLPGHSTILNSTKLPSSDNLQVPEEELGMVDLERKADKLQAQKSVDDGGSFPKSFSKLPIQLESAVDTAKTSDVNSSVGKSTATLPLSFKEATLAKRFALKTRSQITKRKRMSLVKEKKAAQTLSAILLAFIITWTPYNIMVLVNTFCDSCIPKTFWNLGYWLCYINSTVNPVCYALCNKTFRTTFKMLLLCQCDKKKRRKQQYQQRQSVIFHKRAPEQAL
# Chain of Prostanoid EP4 (P35408 whole entry): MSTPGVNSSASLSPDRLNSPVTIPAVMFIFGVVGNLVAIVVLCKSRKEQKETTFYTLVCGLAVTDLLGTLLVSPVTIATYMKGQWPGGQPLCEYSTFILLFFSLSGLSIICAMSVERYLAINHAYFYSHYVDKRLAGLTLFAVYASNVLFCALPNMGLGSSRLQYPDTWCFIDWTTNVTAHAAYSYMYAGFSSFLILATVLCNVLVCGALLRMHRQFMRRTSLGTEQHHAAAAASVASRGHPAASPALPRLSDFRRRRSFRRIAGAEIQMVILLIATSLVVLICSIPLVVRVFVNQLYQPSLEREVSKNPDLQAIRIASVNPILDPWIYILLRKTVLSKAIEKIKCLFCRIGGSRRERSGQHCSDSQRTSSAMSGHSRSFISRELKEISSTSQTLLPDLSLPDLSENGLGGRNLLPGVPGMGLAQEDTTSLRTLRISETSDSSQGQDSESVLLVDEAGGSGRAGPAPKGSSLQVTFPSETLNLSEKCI
Structure (SMILES),"% Inhibition (Sodium Channel, Site 2) [%]",% Inhibition (Prostanoid EP4) [%],% Inhibition (Muscarinic M3) [%],% Inhibition (Adrenergic α1A) [%],% Inhibition (Adrenergic α2A) [%],% Inhibition (Rolipram) [%],% Inhibition (Dopamine D2s) [%],% Inhibition [1] [%],% Inhibition (Adrenergic α1B) [%],% Inhibition [2] [%],% Inhibition (Nicotinic Acetylcholine) [%],% Inhibition (Sigma σ1) [%],% Inhibition (Adenosine A2A) [%],% Inhibition (Adenosine A1) [%],% Inhibition [3] [%],"% Inhibition (Histamine, H1) [%]",% Inhibition [4] [%],other results
O=C(Nc1nnc(-c2ccc(F)cc2)o1)N1CCc2ccccc2C1 [MBX-4132],4,18,16,24,54,2,25,0,21,53,−8,−4,43,48,−3,17,13,–
O=C(Nc1nnc(-c2ccc(F)cc2)o1)c1ccc(Oc2ccccc2)nc1 [MBX-4237],−3,–,–,–,–,1,–,–,–,–,8,–,–,–,9,–,25,"inhibition at 10 µM (Prostanoid EP4): -22%; inhibition at 10 µM (Muscarinic M3): 11%; inhibition at 10 µM (Adrenergic α1A): 6%; inhibition at 10 µM (Adrenergic α2A): -8%; inhibition at 10 µM (Dopamine D2s): -3%; inhibition at 10 µM [1]: -8%; inhibition at 10 µM (Adrenergic α1B): -2%; inhibition at 10 µM [2]: -4%; inhibition at 10 µM (Sigma σ1): 32%; inhibition at 10 µM (Adenosine A2A): 6%; inhibition at 10 µM (Adenosine A1): 10%; inhibition at 10 µM (Histamine, H1): 6%"
O=C(Nc1nnc(-c2ccc(F)cc2)o1)N1CC=C(C(F)(F)F)CC1 [MBX-4347],−5,−4,2,−21,9,−6,−2,2,7,−1,−4,−2,3,−4,5,22,22,–
O=C(Nc1nnc(-c2ccc(F)cc2)o1)c1ccc(OC2CCCCC2)cc1 [MBX-4292],−2,28,0,9,3,−8,1,−4,3,−7,1,10,11,8,0,−8,−1,–
